Laboratory results reported in patent US5994342A, “3-(substituted methyl)-4-oxa-1-azabicyclo[3.2.0]heptan-7-one derivatives useful as antitumor agents” (priority 1994, dated 1999).
In brackets after ≈: the same amount, converted by molar mass. Read-outs that look alike come from different tables or passages of the source.

What was measured:
antitumor activity [1] = assay: Antitumor activity of clavam 1 in vitro; type: cell-based
antitumor activity [2] = assay: Antitumor activity of clavam 1 in vivo
Chemical stability = type: physicochemical
antifungal activity = settings: reported by Brown and Evans; cited from earlier work
L-1210 (S) cells = assay: In vitro L1210 cell cytotoxicity (microculture tetrazolium assay), sensitive line; type: cell-based; settings: Mus musculus, L1210, 72 h, read-out: Cell Toxicity L-1210 (S) (TD50)
Method: (§1) In Vitro L1210 and P388 Cell Cytotoxicity Assay
(§2) Cells were counted using neubauer hemocytometer and seed in 96 well plates at 100 μl of 0.5×10^4 cells per ml. […] Control wells were identical except that the test compound was absent. These were cultured for three days. Results were assayed using the microculture tetrazolium assay briefly. 50 μl of MTT formazoan working solution (1:5 v/v in culture medium) was added to each well and cultures were incubated at 37° C. for 4 hrs. Culture plates were centrifuged at low speed for 5 minutes. All but 10-20 μl of culture medium supernatant was removed by slow aspiration and […] and read at OD540 on a multiscan spectrophotometer. Inhibition value of cell growth was calculated based on optical density using the following equation; [formula]
(§3) TD50 values were calculated from linear regression ines of the log-logit plot.

L-1210 (R) cells = assay: In vitro L1210 cell cytotoxicity (microculture tetrazolium assay), resistant line; type: cell-based; settings: Mus musculus, L1210, 72 h, read-out: Cell Toxicity L-1210 (R) (TD50)
Method: as §1, §2, §3

P388 (S) cells = assay: In vitro P388 cell cytotoxicity (microculture tetrazolium assay), sensitive line; type: cell-based; settings: Mus musculus, 72 h, read-out: Cell Toxicity P388 (S) (TD50)
Method: as §1, §2, §3

P388 (R) cells = assay: In vitro P388 cell cytotoxicity (microculture tetrazolium assay), resistant line; type: cell-based; settings: Mus musculus, read-out: Cell Toxicity P388 (R) (TD50)
Method: as §1, §2, §3

KB cells = assay: In vitro KB cell cytotoxicity assay (crystal violet); type: cell-based; settings: Homo sapiens, 72 h, 3 days culture, read-out: KB Cell Cytotoxicity TD50
In short: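 Cells seeded at 3×10^4 cells/ml in Eagle's MEM with 10% calf serum, cultured one day, then exposed to compound for three days at 37° C, 5% CO2. Glutaraldehyde-fixed cells stained with 0.05% crystal violet, eluted and read at OD540; TD50 from linear regression of log-logit plot of growth inhibition.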

Sarcoma 180 = assay: In vivo antitumor activity against Sarcoma 180; parameters: species or system male ICR mice; settings: i.p., days 1, 5 and 9
Method: In Vivo Antitumor Activity Against Sarcoma 180
The compounds of general formula (I) were tested in vivo against Sarcoma 180 xenografted tumor to mice as illustrated herein after.
Sarcoma 180, 5×10^6 cells were inoculated by S.C. to male ICR mice (6 week old) on day 0. Drugs were administered on days 1, 5 and 9. Mice were killed and tumor weight was measured on day 12 after transplantation. The percentage inhibition of tumor growth was calculated from the mean tumor weight of the treated group compared with that of the control group. Number of mice used in each group was between 6 to 7.

[3] = L-1210 sensitive, 3 days culture
[4] = L-1210 resistant, 3 days culture
[5] = 72 h, P388 resistant, 3 days culture
[6] = Mus musculus, Sarcoma-180, ip, 288 h, 6.25 mg/kg/day, tumor s.c., tumor weight day 12, read-out: % Inhibition of tumor growth
[7] = Mus musculus, Sarcoma-180, ip, 288 h, 12.5 mg/kg/day, tumor s.c., tumor weight day 12, read-out: % Inhibition of tumor growth
[8] = Mus musculus, Sarcoma-180, ip, 288 h, 50 mg/kg/day, tumor s.c., tumor weight day 12, read-out: % Inhibition of tumor growth
[9] = Mus musculus, Sarcoma-180, ip, 288 h, 25 mg/kg/day, tumor s.c., tumor weight day 12, read-out: % Inhibition of tumor growth

For `O=C1C[C@@H]2O[C@@H](CO)CN12` [clavam 1, (3R,5S)-3-hydroxymethyl-4-oxa-1-azabicyclo[3.2.0]heptan-7-one], the “antitumor activity in vitro” value (antitumor activity [1]) was “excellent antitumor activity”, the “antitumor activity in vivo” value (antitumor activity [2]) was “excellent antitumor activity” and the chemical stability (Chemical stability) was “chemically unstable”. For the same molecule, the antifungal activity (antifungal activity) was “exhibit antifungal activity”.
`COc1cccc2c1C(=O)c1c(O)c3c(c(O)c1C2=O)C[C@@](O)(C(=O)CO)C[C@@H]3O[C@H]1C[C@H](N)[C@H](O)[C@H](C)O1` [Adriamycin] gave an IC50 (L-1210 (S) cells) of 0.004 µg/mL (≈ 0.00736 µM), an IC50 (L-1210 (R) cells) of 0.36 µg/mL (≈ 0.662 µM) and an IC50 (P388 (S) cells) of 0.003 µg/mL (≈ 0.00552 µM). For the same molecule, the IC50 (P388 (R) cells; P388, 72 h) was 0.575 µg/mL (≈ 1.06 µM).
In the case of `CC(C)C(N)C(=O)NC(C(=O)O)C(O)C1CN2C(=O)CC2O1` (stereo not drawn) [Example G0069A], the IC50 (L-1210 (S) cells; [3]) was 2.17 µg/mL (≈ 6.88 µM), the IC50 (L-1210 (R) cells; [4]) was 1.87 µg/mL (≈ 5.93 µM) and the IC50 (P388 (S) cells; P388 sensitive, 3 days culture) was 1.02 µg/mL (≈ 3.23 µM). The IC50 (P388 (R) cells; [5]) was 0.751 µg/mL (≈ 2.38 µM).
Work on `CC[C@]1(O)C[C@H]2CN(CCc3c([nH]c4ccccc34)[C@@](C(=O)OC)(c3cc4c(cc3OC)N(C=O)[C@H]3[C@@](O)(C(=O)OC)[C@H](OC(C)=O)[C@]5(CC)C=CCN6CC[C@]43[C@@H]65)C2)C1` [Vincristine] yielded an IC50 (L-1210 (S) cells) of 0.002 µg/mL (≈ 0.00242 µM), an IC50 (L-1210 (R) cells) of 0.2 µg/mL (≈ 0.242 µM) and an IC50 (P388 (R) cells; P388, 72 h) of 0.279 µg/mL (≈ 0.338 µM).
With `CC(=O)NC[C@@H]1CN2C(=O)C[C@H]2O1` (racemic) [Example 1, (3RS,5RS)-3-(N-Acetylaminomethyl)-4-oxa-1-azabicyclo[3.2.0]heptan-7-one] the IC50 (KB cells) was 0.263 µg/mL (≈ 1.43 µM), the IC50 (L-1210 (S) cells; [3]) was 0.103 µg/mL (≈ 0.559 µM) and the IC50 (L-1210 (R) cells; [4]) was 0.104 µg/mL (≈ 0.565 µM). For the same molecule, the IC50 (P388 (S) cells; P388 sensitive, 3 days culture) was 0.103 µg/mL (≈ 0.559 µM), the IC50 (P388 (R) cells; [5]) was 0.074 µg/mL (≈ 0.402 µM) and the “Mortality in 12 days” value (Sarcoma 180; 3.1 mg/kg/day) was 0/6. For the same molecule, the “Mortality in 12 days” value (Sarcoma 180; 6.25 mg/kg/day) was 0/6, the “Mortality in 12 days” value (Sarcoma 180; 12.5 mg/kg/day) was 0/6 and the inhibition in vivo at 3.1 mg/kg (Sarcoma 180; Mus musculus, Sarcoma-180, ip, 288 h, 3.1 mg/kg/day, tumor s.c., tumor weight day 12, read-out: % Inhibition of tumor growth) was 33.9%. It also gave an inhibition in vivo at 6.25 mg/kg (Sarcoma 180; [6]) of 49.3% and an inhibition in vivo at 12.5 mg/kg (Sarcoma 180; [7]) of 71.4%.
In the case of `O=C(CCl)NC[C@@H]1CN2C(=O)C[C@H]2O1` (racemic) [Example 8, (3RS,5RS)-3-(N-Chloroacetylaminomethyl)-4-oxa-1-azabicyclo[3.2.0]heptan-7-one], the IC50 (KB cells) was 0.084 µg/mL (≈ 0.384 µM), the “Mortality in 12 days” value (Sarcoma 180; 8.8 mg/kg/day) was 0/6 and the “Mortality in 12 days” value (Sarcoma 180; 17.5 mg/kg/day) was 0/6. For the same molecule, the “Mortality in 12 days” value (Sarcoma 180; 35 mg/kg/day) was 1/6, the inhibition in vivo at 8.8 mg/kg (Sarcoma 180; Mus musculus, Sarcoma-180, ip, 288 h, 8.8 mg/kg/day, tumor s.c., tumor weight day 12, read-out: % Inhibition of tumor growth) was 39% and the inhibition in vivo at 17.5 mg/kg (Sarcoma 180; Mus musculus, Sarcoma-180, ip, 288 h, 17.5 mg/kg/day, tumor s.c., tumor weight day 12, read-out: % Inhibition of tumor growth) was 51.3%. The inhibition in vivo at 35 mg/kg (Sarcoma 180; Mus musculus, Sarcoma-180, ip, 288 h, 35 mg/kg/day, tumor s.c., tumor weight day 12, read-out: % Inhibition of tumor growth) was 64%.
With `N[C@@H](CC(=O)O)C(=O)NCC1CN2C(=O)CC2O1` (stereo partly drawn) [Example 67B, (3RS,5RS)-3-N-(L-2-Amino-3-carboxypropanoyl)aminomethyl-4-oxa-1-azabicyclo[3.2.0]heptan-7-one] the IC50 (KB cells) was 6.04 µg/mL (≈ 23.5 µM), the “Mortality in 12 days” value (Sarcoma 180; 50 mg/kg/day) was 0/6 and the “Mortality in 12 days” value (Sarcoma 180; 100 mg/kg/day) was 0/6. It also gave an inhibition in vivo at 50 mg/kg (Sarcoma 180; [8]) of 41.1% and an inhibition in vivo at 100 mg/kg (Sarcoma 180; Mus musculus, Sarcoma-180, ip, 288 h, 100 mg/kg/day, tumor s.c., tumor weight day 12, read-out: % Inhibition of tumor growth) of 65.9%.
In the case of `CC(C)[C@H](N)C(=O)NCC(=O)NC[C@@H]1CN2C(=O)C[C@H]2O1.Cl` (mixture of isomers) [Example 45B, (3RS,5RS)-3-[N-(L-2-amino-3-methylbutyryl)aminoacetyl]aminomethyl-4-oxa-1-azabicyclo[3.2.0]heptan-7-one hydrochloride], the IC50 (KB cells) was 1.97 µg/mL, the “Mortality in 12 days” value (Sarcoma 180; 25 mg/kg/day) was 0/6 and the “Mortality in 12 days” value (Sarcoma 180; 50 mg/kg/day) was 0/6. It also gave an inhibition in vivo at 25 mg/kg (Sarcoma 180; [9]) of 39.3% and an inhibition in vivo at 50 mg/kg (Sarcoma 180; [8]) of 81.7%.
For `CC(C)[C@H](NC(=O)[C@@H](N)CC(=O)O)C(=O)OCC1CN2C(=O)CC2O1` (stereo partly drawn) [Example 57B, (3RS,5RS)-3-N-[L-2-N-(L-2-Amino-3-carboxypropanoyl)amino-3-methylbutyryl]oxymethyl-4-oxa-1-azabicyclo[3.2.0]heptan-7-one], the IC50 (KB cells) was 1.54 µg/mL (≈ 4.31 µM), the “Mortality in 12 days” value (Sarcoma 180; 12.5 mg/kg/day) was 0/6 and the “Mortality in 12 days” value (Sarcoma 180; 25 mg/kg/day) was 0/6. The “Mortality in 12 days” value (Sarcoma 180; 50 mg/kg/day) was 1/6, the inhibition in vivo at 12.5 mg/kg (Sarcoma 180; [7]) was 40.9% and the inhibition in vivo at 25 mg/kg (Sarcoma 180; [9]) was 58.1%. The inhibition in vivo at 50 mg/kg (Sarcoma 180; [8]) was 83.1%.
In the case of `Cl.NC[C@@H]1CN2C(=O)C[C@H]2O1` (racemic) [Example 22, (3RS,5RS)-3-aminomethyl-4-oxa-1-azabicyclo[3.2.0]heptan-7-one hydrochloride], the IC50 (KB cells) was 0.344 µg/mL, the “Mortality in 12 days” value (Sarcoma 180; 40 mg/kg/day) was 0/6 and the “Mortality in 12 days” value (Sarcoma 180; 80 mg/kg/day) was 0/6. For the same molecule, the inhibition in vivo at 40 mg/kg (Sarcoma 180; Mus musculus, Sarcoma-180, ip, 288 h, 40 mg/kg/day, tumor s.c., tumor weight day 12, read-out: % Inhibition of tumor growth) was 26.7% and the inhibition in vivo at 80 mg/kg (Sarcoma 180; Mus musculus, Sarcoma-180, ip, 288 h, 80 mg/kg/day, tumor s.c., tumor weight day 12, read-out: % Inhibition of tumor growth) was 40.3%.
With `O=C(NC[C@@H]1CN2C(=O)C[C@H]2O1)NC[C@@H]1CN2C(=O)C[C@H]2O1` (racemic) [Example 34, N,N'-Di-{[(3RS,5RS)-7-oxo-1-aza-4-oxabicyclo[3.2.0]hept-3-yl]methyl}urea] the IC50 (KB cells) was 0.151 µg/mL (≈ 0.487 µM), the “Mortality in 12 days” value (Sarcoma 180; 6.25 mg/kg/day) was 0/6 and the “Mortality in 12 days” value (Sarcoma 180; 12.5 mg/kg/day) was 0/6. For the same molecule, the “Mortality in 12 days” value (Sarcoma 180; 25 mg/kg/day) was 5/6, the inhibition in vivo at 6.25 mg/kg (Sarcoma 180; [6]) was 59.8% and the inhibition in vivo at 12.5 mg/kg (Sarcoma 180; [7]) was 76.3%. The inhibition in vivo at 25 mg/kg (Sarcoma 180; [9]) was 92.5%.
In the case of `CC(=O)NC(COC(C)=O)C(=O)OC[C@H]1CN2C(=O)C[C@@H]2O1` (mixture of isomers) [Example 75B, (3RS,5SR)-3-(2-Acetamido-3-acetoxypropanoyl)oxymethyl-4-oxa-1-azabicyclo[3.2.0]heptan-7-one], the IC50 (KB cells) was 0.567 µg/mL (≈ 1.8 µM), the “Mortality in 12 days” value (Sarcoma 180; 12.5 mg/kg/day) was 0/6 and the “Mortality in 12 days” value (Sarcoma 180; 25 mg/kg/day) was 0/6. For the same molecule, the “Mortality in 12 days” value (Sarcoma 180; 50 mg/kg/day) was 4/6, the inhibition in vivo at 12.5 mg/kg (Sarcoma 180; [7]) was 37.8% and the inhibition in vivo at 25 mg/kg (Sarcoma 180; [9]) was 65.1%. The inhibition in vivo at 50 mg/kg (Sarcoma 180; [8]) was 77.8%.
